# Laboratory results from US20080014186A1, “Hla-A24 or Hla-A2 Binding Peptides of Parathyroid Hormone-Related Protein” (GREEN PEPTIDE CO., LTD., priority 2004, published 2008).
# What was measured:
# [1] = test system: PBMCs of HLA-A2^+ healthy donors and prostate cancer patients; experiment: Assay for peptide-specific CTLs in PBMCs (IFN-γ ELISA, peptide-pulsed T2 cells); assay type: cell-based, human; conditions: for INF-γ production: T2 cells
# [2] = test system: IgG in plasma of HLA-A2^+ healthy donors and prostate cancer patients; experiment: Peptide-specific IgG in plasma by ELISA (HLA-A2-binding PTHrP peptides); design: species or system human; conditions: for IgG reactive to the peptide in plasma (difference of OD): 1:100-diluted plasma
# Description: Peptide-specific IgG levels in the plasma were measured by ELISA, as previously reported. In brief, peptide (20 μg/well)-immobilized plates were blocked with Block Ace (Yukijirushi, Tokyo, Japan) and washed with 0.05% Tween20-PBS, after which 100 μl/well of plasma sample diluted with 0.05% Tween20-Block Ace was added to the plate. After 2 hours incubation at 37° C., the plates were washed and further incubated for 2 hours with a 1:1000-diluted rabbit anti-human IgG (γ-chain-specific) (DAKO, Glostrup, Denmark). The plates were washed, and then 100 μl of 1:100-diluted goat anti-rabbit IgG-conjugated horseradish peroxidase (EnVision, DAKO) was added to each well, and the plates were then incubated at room temperature for 40 min. After the plates were washed once, 100 μl/well of tetramethyl benzidine substrate solution (KPL, Guildford, UK) was added, and the reaction was stopped by the addition of 1 M phosphoric acid. The values are shown as optical density (OD) units/ml, and responses to the HIV peptide were subtracted. IgG reactive to a corresponding PTHrP peptide was judged to be positive when the difference of the OD in 1:100-diluted plasma exceeded 0.05. The results that IgG reactive to either the PTHrP102-111 or the […] peptide was detected in 8 of 10 healthy donors and in 7 of 10 prostate cancers are shown in Table 2 hereinafter.
# In a similar way to Example 3, it was examined whether IgGs reactive to peptides of PTHrP 42-51 and PTHrP 59-67 could be detected in the plasma of 10 healthy donors and 10 cancer patients. The cut-off value at 1:100-diluted plasma was ODO.054.
sequence,measurement,setting,value
LLHDKGKSI [PTHrP 43-51],INF-γ production,[1]; HLA-A2^+ healthy donor #1 (A0201),17 pg/mL
same,INF-γ production,[1]; HLA-A2^+ healthy donor #2 (A0201),21 pg/mL
same,INF-γ production,[1]; HLA-A2^+ healthy donor #3 (A0201),23 pg/mL
same,INF-γ production,[1]; HLA-A2^+ healthy donor #4 (A0201),27 pg/mL
same,INF-γ production,[1]; HLA-A2^+ healthy donor #5 (A0206),0 pg/mL
same,INF-γ production,[1]; HLA-A2^+ healthy donor #6 (A0206),0 pg/mL
same,INF-γ production,[1]; HLA-A2^+ healthy donor #7 (A0206),0 pg/mL
same,INF-γ production,[1]; HLA-A2^+ healthy donor #8 (A0206),0 pg/mL
same,INF-γ production,[1]; HLA-A2^+ healthy donor #9 (A0206),0 pg/mL
same,INF-γ production,[1]; HLA-A2^+ healthy donor #10 (A0207),0 pg/mL
same,Total (donors with significant peptide-specific IFN-γ production / donors tested),"[1]; HLA-A2^+ healthy donors, p < 0.05",0/10
same,INF-γ production,[1]; HLA-A2^+ prostate cancer patient #1 (A0206),40 pg/mL
same,INF-γ production,[1]; HLA-A2^+ prostate cancer patient #2 (A0210),56 pg/mL
same,INF-γ production,[1]; HLA-A2^+ prostate cancer patient #3 (A0210),185 pg/mL
same,INF-γ production,[1]; HLA-A2^+ prostate cancer patient #4 (A0206),0 pg/mL
same,INF-γ production,[1]; HLA-A2^+ prostate cancer patient #5 (A0206),39 pg/mL
same,INF-γ production,[1]; HLA-A2^+ prostate cancer patient #6 (A0207),51 pg/mL
same,INF-γ production,[1]; HLA-A2^+ prostate cancer patient #7 (A0206),0 pg/mL
same,INF-γ production,[1]; HLA-A2^+ prostate cancer patient #8 (A0206),23 pg/mL
same,INF-γ production,[1]; HLA-A2^+ prostate cancer patient #9 (A0201),14 pg/mL
same,INF-γ production,[1]; HLA-A2^+ prostate cancer patient #10 (A0201),0 pg/mL
same,Total (patients with significant peptide-specific IFN-γ production / patients tested),"[1]; HLA-A2^+ prostate cancer patients, p < 0.05",1/10
same,IgG reactive to the peptide in plasma (difference of OD),[2]; HLA-A2^+ healthy donor #1,— (IgG reactive to a corresponding peptide was judged to be positive when a difference of OD in a 1:100-diluted plasma was more than 0.054.)
same,IgG reactive to the peptide in plasma (difference of OD),[2]; HLA-A2^+ healthy donor #2,0.102 OD
same,IgG reactive to the peptide in plasma (difference of OD),[2]; HLA-A2^+ healthy donor #3,— (IgG reactive to a corresponding peptide was judged to be positive when a difference of OD in a 1:100-diluted plasma was more than 0.054.)
same,IgG reactive to the peptide in plasma (difference of OD),[2]; HLA-A2^+ healthy donor #4,0.155 OD
same,IgG reactive to the peptide in plasma (difference of OD),[2]; HLA-A2^+ healthy donor #5,— (IgG reactive to a corresponding peptide was judged to be positive when a difference of OD in a 1:100-diluted plasma was more than 0.054.)
same,IgG reactive to the peptide in plasma (difference of OD),[2]; HLA-A2^+ healthy donor #6,— (IgG reactive to a corresponding peptide was judged to be positive when a difference of OD in a 1:100-diluted plasma was more than 0.054.)
same,IgG reactive to the peptide in plasma (difference of OD),[2]; HLA-A2^+ healthy donor #7,— (IgG reactive to a corresponding peptide was judged to be positive when a difference of OD in a 1:100-diluted plasma was more than 0.054.)
same,IgG reactive to the peptide in plasma (difference of OD),[2]; HLA-A2^+ healthy donor #8,0.121 OD
same,IgG reactive to the peptide in plasma (difference of OD),[2]; HLA-A2^+ healthy donor #9,— (IgG reactive to a corresponding peptide was judged to be positive when a difference of OD in a 1:100-diluted plasma was more than 0.054.)
same,IgG reactive to the peptide in plasma (difference of OD),[2]; HLA-A2^+ healthy donor #10,— (IgG reactive to a corresponding peptide was judged to be positive when a difference of OD in a 1:100-diluted plasma was more than 0.054.)
same,Total (IgG-positive donors / donors tested),[2]; HLA-A2^+ healthy donors,3/10
same,IgG reactive to the peptide in plasma (difference of OD),[2]; HLA-A2^+ prostate cancer patient #1,— (IgG reactive to a corresponding peptide was judged to be positive when a difference of OD in a 1:100-diluted plasma was more than 0.054.)
same,IgG reactive to the peptide in plasma (difference of OD),[2]; HLA-A2^+ prostate cancer patient #2,0.078 OD
same,IgG reactive to the peptide in plasma (difference of OD),[2]; HLA-A2^+ prostate cancer patient #3,— (IgG reactive to a corresponding peptide was judged to be positive when a difference of OD in a 1:100-diluted plasma was more than 0.054.)
same,IgG reactive to the peptide in plasma (difference of OD),[2]; HLA-A2^+ prostate cancer patient #4,— (IgG reactive to a corresponding peptide was judged to be positive when a difference of OD in a 1:100-diluted plasma was more than 0.054.)
same,IgG reactive to the peptide in plasma (difference of OD),[2]; HLA-A2^+ prostate cancer patient #5,— (IgG reactive to a corresponding peptide was judged to be positive when a difference of OD in a 1:100-diluted plasma was more than 0.054.)
same,IgG reactive to the peptide in plasma (difference of OD),[2]; HLA-A2^+ prostate cancer patient #6,0.0895 OD
same,IgG reactive to the peptide in plasma (difference of OD),[2]; HLA-A2^+ prostate cancer patient #7,0.0795 OD
same,IgG reactive to the peptide in plasma (difference of OD),[2]; HLA-A2^+ prostate cancer patient #8,— (IgG reactive to a corresponding peptide was judged to be positive when a difference of OD in a 1:100-diluted plasma was more than 0.054.)
same,IgG reactive to the peptide in plasma (difference of OD),[2]; HLA-A2^+ prostate cancer patient #9,— (IgG reactive to a corresponding peptide was judged to be positive when a difference of OD in a 1:100-diluted plasma was more than 0.054.)
same,IgG reactive to the peptide in plasma (difference of OD),[2]; HLA-A2^+ prostate cancer patient #10,— (IgG reactive to a corresponding peptide was judged to be positive when a difference of OD in a 1:100-diluted plasma was more than 0.054.)
same,Total (IgG-positive patients / patients tested),[2]; HLA-A2^+ prostate cancer patients,3/10
